What was measured:
[1] = Oral absorbability test on rats (plasma levels by HPLC); type: in vivo; conditions: male SD rats, oral 10 mg/5 mL/kg, suspension in 0.5% MC, plasma 0.25-8 hours
Description: Experiment 3 (Oral Absorbability Test on Rats)
The compound of Example 83 and the comparative compound 3 were suspended at 2 mg/mL with a 0.5% MC solution in mortars, respectively, and were orally administered to male SD rats at 10 mg/5 mL/kg. Upon elapsed time of 0.25, 0.5, 1, 2, 4, 6 and 8 hours after the administration, blood samples were collected and then centrifuged to provide plasma samples. The plasma levels of the respective compounds were determined by HPLC. […] The compound of Example 83 is, therefore, useful as an orally dosable medicine.

Water solubility test = type: physicochemical; conditions: for Solubility (%): purified water, from amount of water required for dissolution
Description: Experiment 2 (Water Solubility Test) Testing Method
Each sample compound was weighed in the amount shown in Table 3, to which purified water was added in 0.05 mL aliquots. The solubility (%) of the compound was determined based on the amount of water required for its dissolution.

[2] = tested on: interleukin-1β production; test: Inhibitory activity against interleukin-1β production (LPS-stimulated HL-60 cells, ELISA); type: cell-based; conditions: Table 1, lipopolysaccharide 10 μg/mL, culturing for 3 days, read-out: IL-1β production inhibiting activity IC50
Description: Inhibitory Activity Against Interleukin-1β Production
HL-60 cells were cultured for 4 days until confluence on RPMI 1640 medium with 10% fetal bovine serum (FBS) added thereto. The medium was centrifuged. The supernatant was discarded, and the cells were then suspended at 1×10^6 cells/mL on RPMI 1640 medium with 3% FBS, and lipopolysaccharide was added to give a final concentration of 10 μg/mL. The culture was inoculated at 1 mL/well to a 24-well plate. A sample compound was added at 1 μL/well, followed by culturing for 3 days. Three days later, the amount of interleukin-1β in each culture was determined by ELISA. Each IC50 value was determined by a comparison in yield with a control to which no test sample was added.

[3] = Oral absorbability test on rats and/or mice; type: in vivo; conditions: orally administered to mice and/or rats, as in Experiment 3
From the text: Experiment 4 (Oral Absorbability Test on Rats and/or Mice)
In a similar manner as in Experiment 3, test compounds of Examples 23, 25, 143, 193, 245, 246, 247, 248 and 249 were orally administered to mice and/or rats to test their oral absorbability.

Compound	Oral absorption (plasma levels, FIG. 1) [1]	Solubility (%) (Water solubility test)	IC50 [2] [nM]	Oral absorbability (FIGS. 2 to 6) [3]	Dissolution in the added water (in words) (Water solubility test; 100 mL purified water added)
Cc1cc(-c2cc(CN3CCN(C)CC3)c(=O)n(CC(C)C)n2)ccc1F.Cl.Cl [Example 83, 6-(4-fluoro-3-methylphenyl)-2-isobutyl-4-(4-methyl-1-piperazinyl)methyl-2H-pyridazin-3-one dihydrochloride]	good absorption				
COc1ccc(-c2cc(CN(CCO)CCO)c(=O)n(CC3CC3)n2)cc1F.Cl [Example 23, 4-N,N-bis(2-hydroxyethyl)aminomethyl-2-cyclopropylmethyl-6-(3-fluoro-4-methoxyphenyl)-2H-pyridazin-3-one hydrochloride]		10	330	good absorbability	
CNC(=O)c1cc(-c2ccc(OC)c(F)c2)nn(CC2CC2)c1=O [compound 3, reference compound]	no substantial absorption	<0.001			(insoluble)
